In patent US20220202882A1, “EFFECT OF COMBINATION OF BIFIDOBACTERIUM AND BERBERINE ON PRE-DIABETES AND TYPE 2 DIABETES” (The Fourth Military Medical University, priority 2018, published 2022):
Structures can show the parent of a compound that is named as a salt.

How the values were obtained:
[1] = tested on: pre-diabetic and type 2 diabetes mellitus patients; test: Clinical trial: venous plasma glucose at 2 hours post OGTT (2-h PPG); type: in vivo, human; conditions: for Effect on 2 h-PPG (in words) / Post-treatment 2-h PPG - pre-treatment 2-h PPG, mean value / Post-treatment 2-h PPG <10.0 mmol/L, Yes-N (%): 16 weeks of treatment; for Effect on 2 h-PPG (in words): Kruskal-Wilcox test; for Post-treatment 2-h PPG, mean value: after 16 weeks of treatment; for Pre-treatment 2-h PPG, mean value: baseline before treatment
Protocol: (§1) From June 2015 to October 2018, a double-blind, randomized, and parallel-controlled trial, studying the effects of the combined use of Bifidobacterium and berberine on pre-diabetic and type 2 diabetes mellitus patients, was conducted in 10 research centers in Xi'an, Yan'an and Shangluo of Shaanxi province, etc., including the First Affiliated Hospital of the Fourth Military Medical University. The trial included an enrollment stage of 2 weeks and a treatment stage of 16 weeks. After passing the first visit 1 (see V1 in Table 1), the subjects entered the enrollment stage, i.e., 2 weeks of lifestyle intervention, followed by a re-screening (see V2 in Table 1). The subjects were subjected to a 16-week course of treatment after passing the screening. See Table 1 for the detailed screening parameters. After the enrollment stage, the baseline data of the 300 successfully enrolled subjects were collected. Meanwhile, the subjects started to receive lifestyle guidance, and were randomly divided into four groups for 16 weeks of treatments. 1) Bifidobacterium group: the subjects were administered with Bifidobacterium capsules (Livzon Pharmaceutical Group Inc., batch no.: 20141013), 0.35 g/capsule, each capsule containing 50,000,000 viable bacteria (Bifidobacterium adolescentis DM8504), 2 capsules/time, 2 times/day, plus berberine placebo tablets (Northeast Pharma Group Shenyang First Pharma Co., Ltd., Lot no.: 20150101, containing 80.2% microcrystalline cellulose, 9.4% pregelatinized starch, 6.4% sodium carboxymethyl starch, 1% magnesium stearate, and 3% copovidone), 0.1 g/tablet, 5 tablets/time, 2 times/day. 2) Berberine group: the subjects were administered with berberine tablets (Northeast Pharma Group Shenyang First Pharma Co., Ltd., Lot no.: 130917, each tablet weighted 0.165 g and contained 0.1 g active berberine ingredient (berberine hydrochloride), with the same excipients as the placebo tablets), 5 tablets/time, 2 times/day, plus Bifidobacterium placebo capsules (Livzon Pharmaceutical Group Inc., Lot no.: 141001, specifically containing 0.348 g spray-dried lactose, and 0.002 g magnesium stearate), 0.35 g/capsule, 2 capsules/time, 2 times/day. 3) Combination Group: the subjects were administered with Bifidobacterium capsules, 0.35 g/capsule, each capsule containing 50,000,000 viable bacteria (B. adolescentis DM8504), 2 capsules/time, 2 times/day, plus berberine tablets, 0.1 g/tablet, each tablet containing 0.1 g active berberine ingredient (berberine hydrochloride), 5 tablets/time, 2 times/day. 4) Control group: the subjects were administered with Bifidobacteria placebo capsules, 0.35 g/capsule, 2 capsules/time, 2 times/day, plus berberine placebo tablets, 0.1 g/tablet, 5 tablets/time, 2 times/day. Bifidobacterium capsules were taken after meals and berberine tablets were taken before meals. Before the oral glucose tolerance test (OGTT), the subjects took regular diets for at least 3 days, with carbohydrates no less than 150 g. After 10-12 h fasting, initial blood samples were collected after the subjects emptied their bladders. Then the subjects drank a sugar solution made by dissolving 75 g anhydrous glucoses in 300 ml water over about 5 min, and were collected for blood samples after 30 min and 2 h. […]

[2] = tested on: pre-diabetic and type 2 diabetes mellitus patients; test: Clinical trial: blood lipids (total cholesterol, HDL, LDL); type: in vivo, human; conditions: for Effect on total cholesterol level (in words) / High-density lipoprotein change, mean value / Post-treatment low-density lipoprotein - pre-treatment low-density lipoprotein, mean value / Post-treatment total cholesterol - pre-treatment total cholesterol, mean value: 16 weeks of treatment; for Effect on total cholesterol level (in words): Kruskal-Wilcox test; for Post-treatment low-density lipoprotein, mean value / Post-treatment total cholesterol, mean value: after 16 weeks of treatment; for Pre-treatment low-density lipoprotein, mean value / Pre-treatment total cholesterol, mean value: baseline before treatment
Protocol: as §1, with “Tests of all samples in” for “Before”, “study were carried out in a designated laboratory with standardized criteria. Blood analysis covered hundreds of indicators including insulin, amino acids, cytokines etc. After the sample testing was finished, 1) Chi-Squared test and t-test were used to evaluate the intergroup balance of the baseline data including the demographic characteristics and pre-treatment indicators, wherein the baseline data referred to those collected at the second visit, before the formal administration, the data collected at the first visit on the enrollment stage were used instead if the data at the second visit was lacking; 2) two-way disordered CM-CH11, Kruska-Wilcox test, etc. were used for analysis and intergroup comparison of pre- and post-treatment indicators such as fasting plasma” for “oral”, “(FPG), HbA1c, plasma glucose at 2 hours post OGTT (2-h PPG), blood pressure, blood lipids, body weight and BMI; 3) adverse events and hypoglycemia events were described in terms of” for “tolerance test (OGTT),”, “type, frequency and relevance with the drugs,” for “subjects took regular diets”, “safety evaluation. Software SAS 9.1.3 was used for statistical analysis” for “at least 3 days,”, “all analysis processes being programmed.” for “carbohydrates no less than 150 g. After 10-12 h fasting, initial blood samples were collected after the subjects emptied their bladders. Then the subjects drank a sugar solution made by dissolving 75 g anhydrous glucoses in 300 ml water over about 5 min, and were collected for blood samples after 30 min and 2 h.”

Compound	Effect on 2 h-PPG (in words) [1]	Post-treatment 2-h PPG - pre-treatment 2-h PPG, mean value ([1]; FAS) [mmol/L]	Post-treatment 2-h PPG <10.0 mmol/L, Yes-N (%) ([1]; FAS)	Post-treatment 2-h PPG, mean value ([1]; FAS) [mmol/L]	Pre-treatment 2-h PPG, mean value ([1]; FAS) [mmol/L]	Post-treatment 2-h PPG <10.0 mmol/L, Yes-N (%) ([1]; PPS)	Effect on total cholesterol level (in words) [2]	High-density lipoprotein change, mean value ([2]; FAS) [mmol/L]	Post-treatment low-density lipoprotein - pre-treatment low-density lipoprotein, mean value ([2]; FAS) [mmol/L]	Post-treatment total cholesterol - pre-treatment total cholesterol, mean value ([2]; FAS) [mmol/L]	Post-treatment low-density lipoprotein, mean value ([2]; FAS) [mmol/L]	Post-treatment total cholesterol, mean value ([2]; FAS) [mmol/L]	Pre-treatment low-density lipoprotein, mean value ([2]; FAS) [mmol/L]	Pre-treatment total cholesterol, mean value ([2]; FAS) [mmol/L]	High-density lipoprotein change, mean value ([2]; PPS) [mmol/L]
Bifidobacterium	no such effect	-0.246	45(45.00) N (%)	11.3	11.4	31(37.35) N (%)	did not have evident total cholesterol lowing effect	0.03	-0.00247	0.0219	2.9	4.8100	2.85	4.7600	0.03
COc1ccc2cc3[n+](cc2c1OC)CCc1cc2c(cc1-3)OCO2 [Berberine, berberine hydrochloride]	good effect too	-1.1	35(71.43) N (%)	9.84	11.2	24(64.86) N (%)	significantly reduce the total cholesterol level	0.00	-0.15	-0.2770	2.76	4.6400	2.99	5.0200	-0.00
